Experimental data reported in patent US10639287B2, “Compounds for the treatment of mitochondrial diseases” (UNIVERSITE PARIS-SUD, priority 2014, dated 2020).

Legend:
[1] = test system: fibroblasts from a patient with a mutation on each allele of the POLG gene; assay: Amount of mtDNA (qPCR) in patient fibroblasts, quiescent conditions; type: cell-based, human
Method: Skin fibroblasts from the control and from the patient were cultured to 100% confluence in DMEM at 37° C. under 5% CO2. At 100% confluence, the fibroblasts were washed with PBS and the quiescent medium was added (4.5 g/L D-glucose, 110 mg/L sodium pyruvate, 0.1% foetal bovine serum, 1% penicillin/streptomycin from the stock solution containing 10,000 I.U. penicillin and 10,000 μg/mL streptomycin). After four days in quiescent medium, […] or DMSO (0.1%) was added to the culture medium. The treatment was carried out for 18 days, changing the culture medium with or without clofilium tosylate every three days. […] The mtDNA and nuclear DNA were quantified by qPCR (Sarzi, E., Bourdon, A., Chrétien, D., Zarhrate, M., Corcos, J., Slama, A., Cormier-Daire, V., De Lonlay, P., Munnich, A. and Rötig, A. (2007) Mitochondrial DNA Depletion is a Prevalent Cause of Multiple Respiratory Chain Deficiency in Childhood. J Pediatr, 105, 531-534).
Skin fibroblasts from the patient were cultured to 100% confluence in DMEM at 37° C. under 5% CO2. […] The mtDNA and nuclear DNA were quantified by qPCR (Sarzi, E., Bourdon, A., Chrétien, D., Zarhrate, M., Corcos, J., Slama, A., Cormier-Daire, V., De Lonlay, P., Munnich, A. and Rötig, A. (2007) Mitochondrial DNA Depletion is a Prevalent Cause of Multiple Respiratory Chain Deficiency in Childhood. J Pediatr, 105, 531-534).

[2] = test system: haploinsufficient TB2143 nematodes (polg-1(ok1458Δ/+)); assay: Test for resistance to ethidium bromide of haploinsufficient polg-1 nematodes; type: in vivo, Caenorhabditis elegans; settings: 50 μM, 30 μg/mL ethidium bromide, 4 days
From the text: Ethidium bromide is an intercalating agent of DNA, especially of mtDNA, rich in adenine and thymidine. At high concentrations it halts the development of the worms at stage L3 (Addo, M. G., Cossard, R., Pichard, D., Obiri-Danso, K., Rötig, A. and Delahodde, A. (2010) Caenorhabditis elegans, a pluricellular model organism to screen new genes involved in mitochondrial genome maintenance. BBA-Mol. Basis Dis., 1802, 765-773. The haploinsufficient TB2143 nematodes (polg-1(ok1458Δ/+)) are highly sensitive to low doses of ethidium bromide (30 μg/mL) with 90% of the larvae halted at stage L3.
Around thirty wild-type larvae or larvae mutated in polg-1 (TB2143 line (polg-1(ok1458Δ/+))) synchronised at stage L1 were deposited on NGM dishes containing 30 μg mL ethidium bromide and either DMSO or 50 μM clofilium tosylate (experiment performed in triplicate). Larval development was examined after 4 days of treatment.

CCCCCCC[N+](CC)(CC)CCCCc1ccc(Cl)cc1.Cc1ccc(S(=O)(=O)[O-])cc1 [clofilium tosylate]
amount of mtDNA, quiescent conditions ([1]; Example 14, 18-day treatment): increased
amount of mtDNA, quiescent conditions, dose-response ([1]; Example 25, concentrations of 0.5 μM and 1 μM, 18-day treatment): increased
resistance to ethidium bromide [2]: increased resistance
